Earlier results on one compound are cited in patent US20080153167A1, “In vivo amplification of neural progenitor cells” (priority 2006, published 2008).

This series relates to PDGF driven tumors. The settings on record: Shih et al. 2004.

Consider `Clc1ccc(Nc2nnc(Cc3ccncc3)c3ccccc23)cc1` [PTK787], for which the “effect on PDGF driven tumors” value is on record as “caused high-grade tumors to acquire low-grade histology, but it did not completely eradicate tumor growth”.
